# Measured values as given in US12616761B2, “CXCR4-targeting compounds” (PROVINCIAL HEALTH SERVICES AUTHORITY, priority 2020, dated 2026).
# Read-outs that look alike come from different tables or passages of the source. Positions of bridges follow the written chain, without caps; N, C: chain ends. Non-standard residues stand in square brackets, D forms with d. Residues, ends and D or L forms follow the SMILES beside them. 2Nal = N[C@@H](Cc1ccc2ccccc2c1)C(=O)O; Lys(iPr) = CC(C)NCCCC[C@H](N)C(=O)O; hTyr = N[C@@H](CCc1ccc(O)cc1)C(=O)O
# Key:
# CXCR4 [1] = molecular target: T1, CXCR4 (Homo sapiens, UniProt P61073); assay: Competitive binding assay: [125I]SDF-1α displacement on CHO:CXCR4 cells; conditions: [125I]SDF-1α competition on CHO:CXCR4 cells; given as ranges; read-out: IC50 (nM), Binding Affinity to CXCR4
# T1 construct: expressed in transfected cells; host or cells: CHO:CXCR4 cells (gift from Drs. David McDermott and Xiaoyuan Chen, NIH)
# Procedure: The Z138 mantle cell lymphoma cell line was given by Dr. Christian Steidl (BC Cancer) as a gift. The CHO:CXCR4 cell line was given by Drs. David McDermott and Xiaoyuan Chen (National Institutes of Health) as a gift. The cell line was cultured in a 5% CO2 atmosphere at 37° C. in a humidified incubator. The Z138 cells were incubated with IMDM medium (Life Technologies Corporations) and the CHO:CXCR4 cells were incubated with F12K medium (Life Technologies Corporations), both of which were supplemented with 10% fetal bovine serum (Sigma-Aldrich), 100 I.U./mL penicillin, and 100 μg/mL streptomycin (Penicillin-Streptomycin Solution).
# CHO:CXCR4 cells were seeded at a density of 1×10^5 cells/well in 24-well poly-D-lysine coated plates (Corning BioCoat) and incubated with [^1251]SDF-1α (0.01 nM, PerkinElmer) and competing nonradioactive ligands ([…]). The cells, radioligand, and competing peptides were incubated for 1 h at 27° C. with moderate shaking. Following the incubation period, the supernatant was aspirated, followed by three washes with 1 mL of ice-cold PBS. Cells were harvested with 200 μL of trypsin and counted on a y counter. Data were plotted in GraphPad Prism 7 to determine IC50 values (GraphPad Software, Inc., La Jolla, CA). The values are reported as mean±standard deviation.
# CXCR4 [2] = molecular target: T1, CXCR4; conditions: read-out: IC50, block of SDF-1α binding to CXCR4; cited from earlier work
# [3] = test system: non-Hodgkin lymphoma, renal cell carcinoma, lung cancer, colorectal cancer, and breast cancer xenograft models; conditions: colorectal and breast cancer xenografts; cited from earlier work
# small cell lung cancer = small cell lung cancer patients; cited from earlier work
# T1 sequence (P61073 whole entry): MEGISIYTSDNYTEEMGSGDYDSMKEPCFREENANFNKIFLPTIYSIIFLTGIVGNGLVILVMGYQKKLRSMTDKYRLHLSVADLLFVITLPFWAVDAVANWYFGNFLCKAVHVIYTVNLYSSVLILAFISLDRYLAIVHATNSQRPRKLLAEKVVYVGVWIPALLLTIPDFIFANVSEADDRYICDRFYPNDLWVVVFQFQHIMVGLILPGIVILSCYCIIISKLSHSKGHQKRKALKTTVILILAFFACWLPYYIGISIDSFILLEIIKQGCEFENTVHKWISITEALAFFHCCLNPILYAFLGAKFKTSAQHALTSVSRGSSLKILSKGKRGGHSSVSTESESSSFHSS
Molecule,IC50 (CXCR4 [1]) [nM],also measured
CC(=O)NCCCC[C@@H]1NC(=O)CC[C@H](C(=O)N[C@@H](CCCCNC(C)C)C(N)=O)NC(=O)[C@@H](C)NC(=O)[C@H](Cc2ccc3ccccc3c2)NC(=O)[C@@H](CCCNC(=N)N)NC(=O)[C@H](CCCCNC(C)C)NC(=O)[C@H](CCC(N)=O)NC1=O [cyclo[Lys(Ac)-Gln-Lys(iPr)-D-Arg-2Nal-D-Ala-D-Glu]-Lys(iPr)] (K(Ac)Q[Lys(iPr)][dR][2Nal][dA][dE][Lys(iPr)]-NH2; lactam N-7),10 to 50,–
CC(=O)NCCCC[C@@H]1NC(=O)CC[C@H](C(=O)N[C@@H](CCCCNC(C)C)C(N)=O)NC(=O)[C@@H](C)NC(=O)[C@H](Cc2ccc3ccccc3c2)NC(=O)[C@@H](CCCNC(=N)N)NC(=O)[C@H](CCCCNC(C)C)NC(=O)[C@H](CCC(=O)O)NC1=O [cyclo[Lys(Ac)-Glu-Lys(iPr)-D-Arg-2Nal-D-Ala-D-Glu]-Lys(iPr)] (K(Ac)E[Lys(iPr)][dR][2Nal][dA][dE][Lys(iPr)]-NH2; lactam N-7),50 to 100,–
CC(=O)NCCCC[C@@H]1NC(=O)CC[C@H](C(=O)N[C@@H](CCCCNC(C)C)C(N)=O)NC(=O)CNC(=O)[C@H](Cc2ccc3ccccc3c2)NC(=O)[C@@H](CCCNC(=N)N)NC(=O)[C@H](CCCCNC(C)C)NC(=O)[C@H](Cc2ccc(O)cc2)NC1=O [cyclo[Lys(Ac)-Tyr-Lys(iPr)-D-Arg-2Nal-Gly-D-Glu]-Lys(iPr)] (K(Ac)Y[Lys(iPr)][dR][2Nal]G[dE][Lys(iPr)]-NH2; lactam N-7),1 to 10,–
CC(C)NCCCC[C@H](NC(=O)[C@H]1CCC(=O)N[C@@H](Cc2ccccc2)C(=O)N[C@H](Cc2ccc(O)cc2)C(=O)N[C@@H](CCCCNC(C)C)C(=O)N[C@H](CCCNC(=N)N)C(=O)N[C@@H](Cc2ccc3ccccc3c2)C(=O)N[C@H](C)C(=O)N1)C(N)=O [cyclo[Phe-D-Tyr-Lys(iPr)-DArg-2Nal-D-Ala-D-Glu]-Lys(iPr)] (F[dY][Lys(iPr)][dR][2Nal][dA][dE][Lys(iPr)]-NH2; lactam N-7),50 to 100,–
CC(C)C[C@H]1NC(=O)[C@H](Cc2ccc3ccccc3c2)NC(=O)[C@@H](CCCNC(=N)N)NC(=O)[C@H](CCCCNC(C)C)NC(=O)[C@H](Cc2ccc(O)cc2)NC(=O)[C@H](Cc2ccccc2)NC(=O)CC[C@H](C(=O)N[C@@H](CCCCNC(C)C)C(N)=O)NC1=O [cyclo[Phe-Tyr-Lys(iPr)-D-Arg-2Nal-D-Leu-D-Glu]-Lys(iPr)] (FY[Lys(iPr)][dR][2Nal][dL][dE][Lys(iPr)]-NH2; lactam N-7),50 to 100,–
CC(C)NCCCC[C@H](NC(=O)[C@H]1CCC(=O)N[C@@H](Cc2ccccc2)C(=O)N[C@@H](CCc2ccc(O)cc2)C(=O)N[C@@H](CCCCNC(C)C)C(=O)N[C@H](CCCNC(=N)N)C(=O)N[C@@H](Cc2ccc3ccccc3c2)C(=O)N[C@H](C)C(=O)N1)C(N)=O [cyclo[Phe-hTyr-Lys(iPr)-D-Arg-2-Nal-D-Ala-D-Glu]-Lys(iPr)] (F[hTyr][Lys(iPr)][dR][2Nal][dA][dE][Lys(iPr)]-NH2; lactam N-7),50 to 100,–
cyclo[Phe-Tyr-Lys(iPr)-D-Arg-2-Nal-Gly-D-Glu]-Lys(iPr)-NH2 [LY2510924],–,IC50 (CXCR4 [2]): 0.079 nM; growth of xenograft models [3]: able to inhibit growth; treatment efficacy of carboplatin/etoposide chemotherapy (small cell lung cancer): failed to improve treatment efficacy
